Assay results taken from patent US5006545A, “Veterinary compositions against endoparasites containing cypermethrin and albendazole” (priority 1988, dated 1991).

Assays:
[1] = system: Musca domestica WHO/SRS (L3 larvas); experiment: hatching of imagos from L3 fly larvas on treated nutriment; format: in vivo; conditions: 12 days
Excerpt: (§1) For this purpose the activity of several pyrethroid insecticides has been tested per se or in combination with different benzimidazole type anthelmintics on flies (Musca domestica). […] This synergistic interaction was shown not only in the decrease of the therapeutical concentrations but also on the activity of the sublethal doses to the development. The body mass of the larvas is decreased and from the little aurelias evolved during the long development often deformed imagos, unsuitable for further multiplication were hatched out. Above all the synergistic interaction has made possible the decrease of the therapeutic dose of the orally administered insecticide.
(§2) For examining the interaction between benzimidazoles and pyrethroids the larvas of domestic flies in L3 status (Musca domestica WHO/SRS) were used as model organism.
(§3) A nutriment suitable for breeding fly larvas was prepared from yeast, milk, bran and water and the nutriment was portioned into plastic glasses. Acetonic strain solution was prepared from the active ingredients and after dilution the amounts necessary for achieving the desired active ingredient concentrations were added to the nutriment in the plastic glasses.
The examinations were carried out with total active ingredient concentrations of 1, 5, 10, 50, 100 and 200 ppm in 6 parallel tests per each concentration. Into the plastic glasses containing the treated culture medium 20--20 domestic fly-larvas of L3 status were placed after mass measurement. The glasses were covered by gauze and after 12 days the hatched imagos were counted. In the control containing only solvent the hatching ratio was 91%, the average weight of the hatched flies was 18.2 mg.

[2] = system: Musca domestica (L3 larvas); experiment: average body mass and hatching % of fly larvas/imagos after treatment; format: in vivo
Excerpt: as §1, §2, §3
Fly larvas of L3 status were grown in identical manner as in an Example 1, on a nutriment having a total active ingredient concentration of 5 and 10 ppm.

[3] = system: rats; experiment: acute per os toxicity (LD50), measured on rats; format: in vivo, rat
Excerpt: (§4) The therapeutic indexes of current anthelmintics and transmix each having insecticidal activity and suitable for per os administration are shown in Table 1.

[4] = system: horse bots (Gastrophylus larvas); experiment: therapeutic dose / therapeutic index against horse bots; format: in vivo, Gastrophylus species (in horses); conditions: for Therapeutic index (selectivity): quotient of toxic (rat LD50) and therapeutic dose (horse bots)
Procedure: One of the most important characteristics of the pharmaceutical compositions is the quotient of toxic and therapeutic dosage, the so-called therapeutic index characterizing the security of use. The higher is this value, the smaller is the risk in use, the selective is the active ingredient.
On the basis of the results of the laboratory examinations and toxicity data the therapeutic dose usable for treating bot infection of horses was determined in field trials.
as §4

[5] = acute per os toxicity (LD50), measured on rats; format: in vivo, rat; conditions: rat, in vivo, po
Excerpt: as §4

[6] = system: horses; conditions: horses (Vet. Med., 1985, Apr., p. 68); cited from earlier work
[7] = 100 ppm total active ingredient
[8] = 200 ppm total active ingredient

Row | Compound | number of hatched imagos (from 120 L3) ([1]; 1 ppm total active ingredient) | number of hatched imagos (from 120 L3) ([1]; 5 ppm total active ingredient) | number of hatched imagos (from 120 L3) ([1]; 10 ppm total active ingredient) | number of hatched imagos (from 120 L3) ([1]; 50 ppm total active ingredient) | number of hatched imagos (from 120 L3) [1, 7] | number of hatched imagos (from 120 L3) [1, 8] | average body mass ([2]; 5 ppm total active ingredient) | hatching % ([2]; 5 ppm total active ingredient) | average body mass ([2]; 10 ppm total active ingredient) | hatching % ([2]; 10 ppm total active ingredient) | Toxicity acute per os LD50 [3] | Therapeutic dose ([4]; against horse bots, per os) | LD50 [5] | Therapeutic index (selectivity) [4] | side effects accompanying treatment [6]
1 | CC1(C)C(C=C(Cl)Cl)C1C(=O)OC(C#N)c1cccc(Oc2ccccc2)c1 (stereo not drawn) [Chinmix, α-cyano-3-(2,2-dichlorovinyl)-2,2-dimethyl-cyclopropan-carboxylic acid-3-phenoxybenzylester] | 90 | 62 | 47 | 27 | 4 | 0 | 10.3 | 53% | 7.8 | 41% | – | – | – | – | –
2 | dihydro-avermectine B1 [Ivermectine] | – | – | – | – | – | – | – | – | – | – | 10 mg/kg | 0.2 mg/kg | – | – | –
3 | CCCSc1ccc2nc(NC(=O)OC)[nH]c2c1 [Albendazole, 5(6)-propylthio-benzimidazole-N-methylcarbamate] | 111 | 113 | 107 | 112 | 107 | 109 | 18.3 | 100% | 17.8 | 100% | – | – | – | – | –
4 | COP(=O)(OC)OC=C(Cl)Cl [Dichlorvos, 2,2-dichlorovinyl-phosphonic acid dimethylester] | – | – | – | – | – | – | – | – | – | – | – | – | 56 mg/kg | 11 | –
5 | COP(=O)(OC)C(O)C(Cl)(Cl)Cl (stereo not drawn) [Trichlorfon, 2,2,2-trichloro-1-hydroxyethyl-phosphonic acid dimethylester] | – | – | – | – | – | – | – | – | – | – | – | – | 450 mg/kg | 15 | diarrhoea, frequent defecation and urination
6 | CC1(C)[C@H](C=C(Cl)Cl)[C@H]1C(=O)O[C@H](C#N)c1cccc(Oc2ccccc2)c1 (relative stereo) [Transmix, α-cyano-3-(2,2-dichlorovinyl)-2,2-dimethyl-cyclopropan-carboxylic acid-3-phenoxybenzylester] | 108 | 112 | 89 | 64 | 39 | 18 | 12.9 | 98% | 9.6 | 84% | – | – | 5000 mg/kg | 2500 | –
